Tests used:
HEI-193 cells [1] = experiment: Cell-cycle analysis by FACS in HEI-193 cells; assay type: cell-based, human; details: 10 μM, 4 days (FIGS. 12A, 13A)
Procedure: […] After 4 days, the cells were fixed with 70% ethanol and labeled with propidium iodine. These samples were analyzed by FACS for cell-cycle analysis. After 7 days of treatment with DMSO (control group), PRG-N-01, or TEW7197 at the indicated concentration, the cells were fixed with 4% paraformaldehyde and then stained with indicated antibody. A minimum of 10,000 cells were analyzed using an Attune NxT Flow cytometer (Thermo Fisher Scientific, Inc., Rockford, IL, USA).

[2] = molecular target: T1, interaction between TβR1 and RKIP (Homo sapiens, UniProt P30086+P36897); experiment: Immunoprecipitation of TβR1-RKIP interaction in transfected HEI-193 cells; assay type: cell-based; details: FLAG-TβR1- or HA-RKIP-transfected HEI-193 cells, indicated concentrations, 6 h (FIGS. 8A, 9A)
T1 construct: host or cells: HEI-193
T1 sequence (P36897 34-503): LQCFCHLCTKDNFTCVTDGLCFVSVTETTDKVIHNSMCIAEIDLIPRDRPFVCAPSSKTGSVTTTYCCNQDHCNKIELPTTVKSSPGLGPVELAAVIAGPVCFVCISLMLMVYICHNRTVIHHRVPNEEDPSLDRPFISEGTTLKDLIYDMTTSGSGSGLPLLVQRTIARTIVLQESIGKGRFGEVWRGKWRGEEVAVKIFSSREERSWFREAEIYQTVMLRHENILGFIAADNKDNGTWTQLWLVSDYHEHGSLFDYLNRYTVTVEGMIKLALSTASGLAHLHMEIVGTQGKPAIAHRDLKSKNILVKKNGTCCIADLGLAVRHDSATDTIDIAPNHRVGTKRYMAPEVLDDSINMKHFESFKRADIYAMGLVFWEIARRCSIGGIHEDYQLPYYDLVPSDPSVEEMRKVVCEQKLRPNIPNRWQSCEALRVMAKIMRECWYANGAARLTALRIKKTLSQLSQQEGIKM
T1 sequence (P30086 2-187 limits assumed): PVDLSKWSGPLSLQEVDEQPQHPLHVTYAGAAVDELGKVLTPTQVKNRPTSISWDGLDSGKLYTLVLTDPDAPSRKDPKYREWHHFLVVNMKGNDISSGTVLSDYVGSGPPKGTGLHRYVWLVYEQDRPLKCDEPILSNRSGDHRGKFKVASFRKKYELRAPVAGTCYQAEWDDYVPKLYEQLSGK
Procedure: For protein-protein interaction analysis, glutathione S-transferase (GST)-pull down assay was performed. For GST-pull down, agarose-bead-conjugated GST-RKIP recombinant protein was reacted with FLAG-tagged TβR1-transfected HEK 293 cell lysates in PBS buffer at 4° C. for 1 hour. Immunoprecipitation (IP) assay was performed by reacting with FLAG-tagged TβR1- or HA-tagged RKIP-transfected HEI-193 cell lysates in PBS buffer. Whole lysates were reacted with appropriate primary antibodies at 4° C. for 2 hours and with agarose-bead-conjugated protein A/G (Invitrogen, Carlsbad, CA, USA) for 2 hours. After centrifugation, the precipitates were washed twice with RIPA buffer and subjected to SDS-PAGE and western blotting analysis.

RKIP = RKIP / p-Erk immunoblotting in mouse schwannoma (mouse NF2) cells; assay type: cell-based
Procedure: Cells were harvested and lysed using RIPA buffer [50 mM Tris-Cl, pH 7.5, 150 mM NaCl, 1% NP-40, 0.1% SDS, and 10% sodium deoxycholate] to examine cellular signaling. Protein concentrations in samples were measured using Bio-Rad (Hercules, CA, USA) protein assay kits and BSA standards. The samples (20 μg protein per lane) were separated by sodium dodecyl sulfate-polyacrylamide gel electrophoresis (SDS-PAGE), transferred to Immobilon-P^SQ transfer membranes (Millipore Corp., MA, USA), which were then cultured with 3% skim milk-containing TBS-T buffer (Tris-HCl-based buffer containing 20 mM Tris pH 7.6, 150 mM NaCl, and 0.05% Tween 20) for 1 hour at room temperature and then reacted with primary antibody in TBS-T overnight at 4° C. The membranes were then washed and reacted with secondary horseradish peroxidase (HRP)-conjugated antibodies [goat anti-mouse, goat anti-rabbit, and mouse anti-goat antibodies (Pierce, Thermo Fisher Scientific, Inc., Rockford, IL, USA)] in TBS-T at room temperature for 2 hours. The blots were detected using an HRP-conjugated secondary antibody using ECL kit (Intron, Seoul, Korea).

HEI-193 cells [3] = experiment: Microarray gene expression profile of HEI-193 cells; assay type: cell-based, human; details: PRG-N-01-treated HEI-193 cells vs control
Procedure: Total RNA (500 ng) was extracted using an RNAeasy kit (Qiagen). RNA labeling, hybridization on Human Gene 1.0 ST array (Affymetrix), and data analysis were performed using DNA Link (Seoul, Korea). Genes showing at least a 2-fold difference in each cell line were selected for further analysis.

mouse schwannoma cells = experiment: Tumorsphere formation assay, mouse schwannoma cells; assay type: cell-based; details: 10 μM
Procedure: For tumorsphere formation assay, Hei-193 or mouse schwannoma cells (3×10^6 cells/plate) were cultured in DMEM/F12 medium (supplemented with 2% B27 and 40 ng/ml bFGF) and added with the indicated chemicals on non-coated plates for indicated days.

SOX2 = SOX2 localization by IF and cell fractionation in HEI-193 cells; assay type: cell-based, human; details: 2 μM, 24 h, IF and cell fractionation (FIGS. 15C, 15D)
Procedure: Cells were seeded on cover glass, washed with PBS, fixed with 4% paraformaldehyde (PFA) for 30 minutes at room temperature, and then permeabilized with 0.2% Triton X-100 at room temperature for 5 minutes. After treatment with blocking buffer [3% goat serum diluted in PBS] for 1 hour, cells were reacted with the specified antibody in the blocking buffer overnight at 4° C. Finally, the cells were reacted with secondary antibodies conjugated with FITC or rhodamine at 4° C. for 7 hours. The nuclei were stained with DAPI at room temperature for 10 minutes. After the cells were washed 3 times with PBS, the cover glass was mounted with a mounting solution (H-5501, Vector Laboratories, Cambridgeshire, UK) and immunofluorescence signals were detected using a fluorescence microscopy (Zeiss, Jena, Germany).

HEI-193 cells [4] = experiment: Morphological change / differentiation of HEI-193 cells; assay type: cell-based, human; details: 7 days (FIGS. 12C, 13B)

With `CCN(CC)CCOc1ccc(-c2nnn(Cc3ccc(OC)cc3)c2N)cc1` [PRG-N-01, 4-(4-(2-(diethylamino)ethoxy)phenyl)-1-(4-methoxybenzyl)-1H-1,2,3-triazol-5-amino] as the molecule, how does the cell cycle (HEI-193 cells [1]) read?
Its cell cycle is “cell cycle arrest was induced at the G1 phase”.

What about the “binding between TβR1 and RKIP (IP)” value [2] of the same molecule?
The value was “interrupted the binding in a dose-dependent manner”.

What about the RKIP expression (RKIP; mouse NF2 cell line) of the same molecule?
The RKIP expression was “increased RKIP expression”.

And the “RKIP induction and p-Erk suppression” value (RKIP; mouse schwannoma cells, 36 h (FIG. 9B))?
Its value is “observed only in actual mouse schwannoma”.

What about the “Log2Ratio, gene FABP3 (fatty acid binding protein 3, muscle and heart)” value (HEI-193 cells [3]) of the same molecule?
The value was −2.272.

What about the “Log2Ratio, gene HIST1H1B” value (HEI-193 cells [3]) of the same molecule?
The value was −2.475.

And the “Log2Ratio, gene MEST” value (HEI-193 cells [3])?
Its value is −1.95.

And the “Log2Ratio, gene MMP1” value (HEI-193 cells [3])?
Its value is 2.163.

And the “Log2Ratio, gene MSMO1” value (HEI-193 cells [3])?
The value was −1.988.

And the “Log2Ratio, gene OLFML3” value (HEI-193 cells [3])?
Its value is −2.099.

And the “Log2Ratio, gene PBK” value (HEI-193 cells [3])?
The value was −1.976.

And the “Log2Ratio, gene PLK1 (polo-like kinase 1)” value (HEI-193 cells [3])?
The value was −2.041.

And the “Log2Ratio, gene PRR11” value (HEI-193 cells [3])?
The value was −2.207.

And the “Log2Ratio, gene TOP2A” value (HEI-193 cells [3])?
Its value is −1.931.

And the “cell-cycle-related genes (PLK1, CENPE) expression” value (HEI-193 cells [3])?
Its value is “downregulated”.

And the “lipid metabolism-related genes (PNILPRP3, NR4A2, ABCA1) expression” value (HEI-193 cells [3])?
Its value is “strikingly upregulated”.

What about the “tenascin C gene expression (readout of canonical TGF-β signaling)” value (HEI-193 cells [3]) of the same molecule?
Its value is “considerably upregulated”.

And the “tumorsphere size and number” value (mouse schwannoma cells; 10th day)?
The value was “reduced the tumorsphere size as well as the number of tumorsphere”.

What about the tumorsphere formation (mouse schwannoma cells; DMEM/F12 medium) of the same molecule?
Its tumorsphere formation is “obviously inhibited tumorsphere formation”.

What about the “localization of nuclear SOX2” value (SOX2) of the same molecule?
Its value is “moved to the cytosol”.

And the morphological changes (HEI-193 cells [4])?
Its morphological changes is “induced morphological changes”.

Source: patent US20240092741A1, “COMPOSITION FOR PREVENTION OR TREATMENT OF NEUROFIBROMATOSIS TYPE 2 SYNDROME” (PRG S&TECH INC., priority 2021, published 2024)
